From ChEMBL document CHEMBL5543109, “Novel β-Hairpin Antimicrobial Peptide Containing the β-Turn Sequence of -NG- and the Tryptophan Zippers Facilitate Self-Assembly into Nanofibers, Exhibiting Excellent Antimicrobial Performance” (J Med Chem, 2024)
≈ marks a conversion by molar mass, not a printed value. Residues, ends and D or L forms follow the SMILES beside them.

Legend:
Staphylococcus aureus [1] = experiment: Antibacterial activity against Staphylococcus aureus ATCC 25923 incubated for 18 hrs by broth microdilution method; assay type: functional
Bacillus subtilis [2] = experiment: Antibacterial activity against Bacillus subtilis ATCC 23857 incubated for 18 hrs by broth microdilution method; assay type: functional
[3] = test system: Staphylococcus epidermidis; experiment: Antibacterial activity against Staphylococcus epidermidis ATCC 12228 incubated for 18 hrs by broth microdilution method; assay type: functional
Klebsiella pneumoniae [4] = experiment: Antibacterial activity against Klebsiella pneumoniae ATCC 700603 incubated for 18 hrs by broth microdilution method; assay type: functional
Escherichia coli [5] = experiment: Antibacterial activity against Escherichia coli ATCC 25922 incubated for 18 hrs by broth microdilution method; assay type: functional
Pseudomonas aeruginosa [6] = experiment: Antibacterial activity against Pseudomonas aeruginosa ATCC 27853 incubated for 18 hrs by broth microdilution method; assay type: functional
Staphylococcus aureus [7] = experiment: Bactericidal activity against Staphylococcus aureus ATCC 25923 incubated for 18 hrs by broth microdilution method; assay type: functional
Bacillus subtilis [8] = experiment: Bactericidal activity against Bacillus subtilis ATCC 23857 incubated for 18 hrs by broth microdilution method; assay type: functional
[9] = test system: Staphylococcus epidermidis; experiment: Bactericidal activity against Staphylococcus epidermidis ATCC 12228 incubated for 18 hrs by broth microdilution method; assay type: functional
Klebsiella pneumoniae [10] = experiment: Bactericidal activity against Klebsiella pneumoniae ATCC 700603 incubated for 18 hrs by broth microdilution method; assay type: functional
Escherichia coli [11] = experiment: Bactericidal activity against Escherichia coli ATCC 25922 incubated for 18 hrs by broth microdilution method; assay type: functional
Pseudomonas aeruginosa [12] = experiment: Bactericidal activity against Pseudomonas aeruginosa ATCC 27853 incubated for 18 hrs by broth microdilution method; assay type: functional
Erythrocyte = experiment: Hemolytic activity in mouse erythrocytes assessed as concentration required to cause 10% hemolysis incubated for 1 hr; assay type: toxicity, cell-based
[13] = Retention time of the compound; assay type: physicochemical
[14] = Self-assembly property of compound in water assessed as beta-sheet content; assay type: physicochemical
[15] = Self-assembly property of compound in PBS assessed as beta-sheet content; assay type: physicochemical; details: buffer
[16] = Self-assembly property of compound in 50% TFE assessed as beta-sheet content; assay type: physicochemical
Staphylococcus aureus [17] = experiment: Antibacterial activity against Staphylococcus aureus at 2 times MIC preincubated for 1 hr with trypsin followed by enzyme inactivation and bacterial addition and measured after 18 hrs; assay type: functional; details: time 19 hrs
Staphylococcus aureus [18] = experiment: Antibacterial activity against Staphylococcus aureus at 2 times MIC preincubated for 1 hr with chymotrypsin followed by enzyme inactivation and bacterial addition and measured after 18 hrs; assay type: functional; details: time 19 hrs
Staphylococcus aureus [19] = experiment: Antibacterial activity against methicillin resistant Staphylococcus aureus incubated for 18 hrs by broth microdilution method; assay type: functional
Staphylococcus aureus [20] = experiment: Antibacterial activity against methicillin resistant Staphylococcus aureus 113 incubated for 18 hrs by broth microdilution method; assay type: functional
Staphylococcus aureus [21] = experiment: Antibacterial activity against Staphylococcus aureus S794 incubated for 18 hrs by broth microdilution method; assay type: functional
Staphylococcus aureus [22] = experiment: Antibacterial activity against Staphylococcus aureus S125 incubated for 18 hrs by broth microdilution method; assay type: functional
Staphylococcus aureus [23] = experiment: Antibacterial activity against methicillin resistant Staphylococcus aureus 75 incubated for 18 hrs by broth microdilution method; assay type: functional
Staphylococcus aureus [24] = experiment: Antibacterial activity against Staphylococcus aureus incubated for 18 hrs by broth microdilution method; assay type: functional
Staphylococcus aureus [25] = experiment: Antibacterial activity against kanamycin resistant Staphylococcus aureus incubated for 18 hrs by broth microdilution method; assay type: functional
Staphylococcus aureus [26] = experiment: Antibacterial activity against rifampicin resistant Staphylococcus aureus incubated for 18 hrs by broth microdilution method; assay type: functional
Escherichia coli [27] = experiment: Antibacterial activity against Escherichia coli incubated for 18 hrs by broth microdilution method; assay type: functional
Escherichia coli [28] = experiment: Antibacterial activity against kanamycin resistant Escherichia coli incubated for 18 hrs by broth microdilution method; assay type: functional
Escherichia coli [29] = experiment: Antibacterial activity against rifampicin resistant Escherichia coli incubated for 18 hrs by broth microdilution method; assay type: functional

Compound: NCCCC[C@@H](N)C(=O)N[C@H](Cc1c[nH]c2ccccc12)C(=O)N[C@H](CCCCN)C(=O)N[C@H](Cc1c[nH]c2ccccc12)C(=O)N[C@H](CCCCN)C(=O)N1CCC[C@@H]1C(=O)NCC(=O)N[C@H](CCCCN)C(=O)N[C@H](Cc1c[nH]c2ccccc12)C(=O)N[C@H](CCCCN)C(=O)N[C@H](Cc1c[nH]c2ccccc12)C(=O)N[C@H](CCCCN)C(N)=O
- MIC (Staphylococcus aureus [1]): 16 µM (≈ 27 µg/mL)
- MIC (Bacillus subtilis [2]): 4 µM (≈ 6.74 µg/mL)
- MIC [3]: 4 µM (≈ 6.74 µg/mL)
- MIC (Klebsiella pneumoniae [4]): 16 µM (≈ 27 µg/mL)
- MIC (Escherichia coli [5]): 8 µM (≈ 13.5 µg/mL)
- MIC (Pseudomonas aeruginosa [6]): 8 µM (≈ 13.5 µg/mL)
- MBC (Staphylococcus aureus [7]): 32 µM (≈ 53.9 µg/mL)
- MBC (Bacillus subtilis [8]): 8 µM (≈ 13.5 µg/mL)
- MBC [9]: 16 µM (≈ 27 µg/mL)
- MBC (Klebsiella pneumoniae [10]): 16 µM (≈ 27 µg/mL)
- MBC (Escherichia coli [11]): 8 µM (≈ 13.5 µg/mL)
- MBC (Pseudomonas aeruginosa [12]): 32 µM (≈ 53.9 µg/mL)
- MHC (Erythrocyte): > 512 µM
- Retention_time [13]: 11.539 min
- Activity [14]: 35%
- Activity [15]: 47%
- Activity [16]: 30.4%
- Activity (Staphylococcus aureus [17]): 100%
- Activity (Staphylococcus aureus [18]): 100%

Compound: NCCCC[C@@H](NC(=O)[C@H](N)Cc1c[nH]c2ccccc12)C(=O)N[C@H](Cc1c[nH]c2ccccc12)C(=O)N[C@H](CCCCN)C(=O)N[C@H](Cc1c[nH]c2ccccc12)C(=O)N1CCC[C@@H]1C(=O)N1CCC[C@H]1C(=O)N[C@H](Cc1c[nH]c2ccccc12)C(=O)N[C@H](CCCCN)C(=O)N[C@H](Cc1c[nH]c2ccccc12)C(=O)N[C@H](CCCCN)C(=O)N[C@H](Cc1c[nH]c2ccccc12)C(N)=O
- MIC (Staphylococcus aureus [1]): 4 µM (≈ 7.36 µg/mL)
- MIC (Bacillus subtilis [2]): 2 µM (≈ 3.68 µg/mL)
- MIC [3]: 4 µM (≈ 7.36 µg/mL)
- MIC (Klebsiella pneumoniae [4]): 8 µM (≈ 14.7 µg/mL)
- MIC (Escherichia coli [5]): 4 µM (≈ 7.36 µg/mL)
- MIC (Pseudomonas aeruginosa [6]): 8 µM (≈ 14.7 µg/mL)
- MBC (Staphylococcus aureus [7]): 8 µM (≈ 14.7 µg/mL)
- MBC (Bacillus subtilis [8]): 2 µM (≈ 3.68 µg/mL)
- MBC [9]: 8 µM (≈ 14.7 µg/mL)
- MBC (Klebsiella pneumoniae [10]): 16 µM (≈ 29.5 µg/mL)
- MBC (Escherichia coli [11]): 4 µM (≈ 7.36 µg/mL)
- MBC (Pseudomonas aeruginosa [12]): 32 µM (≈ 58.9 µg/mL)
- MHC (Erythrocyte): 243.5 µM
- Retention_time [13]: 14.321 min
- Activity (Staphylococcus aureus [17]): 100%
- Activity (Staphylococcus aureus [18]): 100%

Compound: C[C@@H](O)[C@H]1C(=O)N2C(C(=O)O)=C(SCCNC=N)C[C@H]12 [IMIPENEM ANHYDROUS]
- MIC (Staphylococcus aureus [19]): 32 µM (≈ 9.58 µg/mL)
- MIC (Staphylococcus aureus [20]): 0.5 µM (≈ 0.15 µg/mL)
- MIC (Staphylococcus aureus [21]): 0.5 µM (≈ 0.15 µg/mL)
- MIC (Staphylococcus aureus [22]): 0.5 µM (≈ 0.15 µg/mL)
- MIC (Staphylococcus aureus [23]): 256 µM (≈ 76.6 µg/mL)
- MIC (Staphylococcus aureus [24]): 0.5 µM (≈ 0.15 µg/mL)
- MIC (Staphylococcus aureus [25]): 0.5 µM (≈ 0.15 µg/mL)
- MIC (Staphylococcus aureus [26]): 0.5 µM (≈ 0.15 µg/mL)
- MIC (Escherichia coli [27]): 0.5 µM (≈ 0.15 µg/mL)
- MIC (Escherichia coli [28]): 8 µM (≈ 2.39 µg/mL)
- MIC (Escherichia coli [29]): 0.5 µM (≈ 0.15 µg/mL)

Compound: CC[C@H](C)[C@H](N)C1=N[C@H](C(=O)N[C@@H](CC(C)C)C(=O)N[C@H](CCC(=O)O)C(=O)N[C@H](C(=O)N[C@H]2CCCCNC(=O)[C@H](CC(N)=O)NC(=O)[C@@H](CC(=O)O)NC(=O)[C@H](Cc3cnc[nH]3)NC(=O)[C@@H](Cc3ccccc3)NC(=O)[C@H]([C@@H](C)CC)NC(=O)[C@@H](CCCN)NC2=O)[C@@H](C)CC)CS1 [BACITRACIN] (HELM PEPTIDE1{[CC[C@H](C)[C@H](N)C1=N[C@H](C(=O)[*:2])CS1].L.[dE].I.K.[NCCC[C@@H](N[*:1])C(=O)[*:2]].I.[dF].H.[dD].N}$PEPTIDE1,PEPTIDE1,5:R3-11:R2$$$V2.0)
- MIC (Staphylococcus aureus [1]): 32 µM (≈ 45.5 µg/mL)
- MIC (Bacillus subtilis [2]): > 128 µM
- MIC [3]: 16 µM (≈ 22.8 µg/mL)
- MIC (Klebsiella pneumoniae [4]): > 128 µM
- MIC (Escherichia coli [5]): > 128 µM
- MIC (Pseudomonas aeruginosa [6]): > 128 µM
- MIC (Staphylococcus aureus [19]): 0.5 µM (≈ 0.711 µg/mL)
- MIC (Staphylococcus aureus [20]): 16 µM (≈ 22.8 µg/mL)
- MIC (Staphylococcus aureus [21]): 256 µM (≈ 364 µg/mL)
- MIC (Staphylococcus aureus [22]): 8 µM (≈ 11.4 µg/mL)
- MIC (Staphylococcus aureus [23]): 0.5 µM (≈ 0.711 µg/mL)
- MIC (Staphylococcus aureus [24]): 32 µM (≈ 45.5 µg/mL)
- MIC (Staphylococcus aureus [25]): 16 µM (≈ 22.8 µg/mL)
- MIC (Staphylococcus aureus [26]): 256 µM (≈ 364 µg/mL)
- MIC (Escherichia coli [27]): 256 µM (≈ 364 µg/mL)
- MIC (Escherichia coli [28]): 256 µM (≈ 364 µg/mL)
- MIC (Escherichia coli [29]): 256 µM (≈ 364 µg/mL)

Compound: CO[C@H]1/C=C/O[C@@]2(C)Oc3c(C)c(O)c4c(O)c(c(/C=N/N5CCN(C)CC5)c(O)c4c3C2=O)NC(=O)/C(C)=C\C=C\[C@H](C)[C@H](O)[C@@H](C)[C@@H](O)[C@@H](C)[C@H](OC(C)=O)[C@@H]1C [RIFAMPIN]
- MIC (Staphylococcus aureus [1]): < 1 µM
- MIC (Bacillus subtilis [2]): < 1 µM
- MIC [3]: < 1 µM
- MIC (Klebsiella pneumoniae [4]): 64 µM (≈ 52.7 µg/mL)
- MIC (Escherichia coli [5]): 16 µM (≈ 13.2 µg/mL)
- MIC (Pseudomonas aeruginosa [6]): 32 µM (≈ 26.3 µg/mL)
- MIC (Staphylococcus aureus [19]): 256 µM (≈ 211 µg/mL)
- MIC (Staphylococcus aureus [20]): 0.5 µM (≈ 0.411 µg/mL)
- MIC (Staphylococcus aureus [21]): 32 µM (≈ 26.3 µg/mL)
- MIC (Staphylococcus aureus [22]): 0.5 µM (≈ 0.411 µg/mL)
- MIC (Staphylococcus aureus [23]): 256 µM (≈ 211 µg/mL)
- MIC (Staphylococcus aureus [24]): 0.5 µM (≈ 0.411 µg/mL)
- MIC (Staphylococcus aureus [25]): 4 µM (≈ 3.29 µg/mL)
- MIC (Staphylococcus aureus [26]): 64 µM (≈ 52.7 µg/mL)
- MIC (Escherichia coli [27]): 16 µM (≈ 13.2 µg/mL)
- MIC (Escherichia coli [28]): 32 µM (≈ 26.3 µg/mL)
- MIC (Escherichia coli [29]): 256 µM (≈ 211 µg/mL)

Compound: NC[C@H]1O[C@H](O[C@H]2[C@H](O)[C@@H](O[C@H]3O[C@H](CO)[C@@H](O)[C@H](N)[C@H]3O)[C@H](N)C[C@@H]2N)[C@H](O)[C@@H](O)[C@@H]1O [KANAMYCIN]
- MIC (Staphylococcus aureus [1]): < 1 µM
- MIC (Bacillus subtilis [2]): < 1 µM
- MIC [3]: > 128 µM
- MIC (Klebsiella pneumoniae [4]): 64 µM (≈ 31 µg/mL)
- MIC (Escherichia coli [5]): 8 µM (≈ 3.88 µg/mL)
- MIC (Pseudomonas aeruginosa [6]): > 128 µM
- MIC (Staphylococcus aureus [19]): 256 µM (≈ 124 µg/mL)
- MIC (Staphylococcus aureus [20]): 256 µM (≈ 124 µg/mL)
- MIC (Staphylococcus aureus [21]): 16 µM (≈ 7.75 µg/mL)
- MIC (Staphylococcus aureus [22]): 256 µM (≈ 124 µg/mL)
- MIC (Staphylococcus aureus [23]): 256 µM (≈ 124 µg/mL)
- MIC (Staphylococcus aureus [24]): 0.5 µM (≈ 0.242 µg/mL)
- MIC (Staphylococcus aureus [25]): 256 µM (≈ 124 µg/mL)
- MIC (Staphylococcus aureus [26]): 4 µM (≈ 1.94 µg/mL)
- MIC (Escherichia coli [27]): 4 µM (≈ 1.94 µg/mL)
- MIC (Escherichia coli [28]): 256 µM (≈ 124 µg/mL)
- MIC (Escherichia coli [29]): 4 µM (≈ 1.94 µg/mL)
